US20250057808A1, “COMPOSITION COMPRISING BETA LACTAM FOR TREATING ALCOHOL DEPENDENCE AND ALCOHOL ASSOCIATED DISEASES OR CONDITIONS” (Temple University of the Commonwealth System of Higher …, priority 2023, published 2025)
Entries after “also recorded” stand apart in the source; their conditions may differ.

Key:
xCT = experiment: Immunoblot xCT in mPFC-IL, mPFC-PL, NAc-core, NAc-shell (section B); type: in vivo, Male and female alcohol-preferring (P) rats; details: 100 mg/kg i.p. 5 days
Procedure: After 24 hours of receiving the last injection, rats were euthanized by CO2 inhalation followed by decapitation with a guillotine. Brains were harvested and immediately frozen on dry ice and stored at −80° C. Cryostat (Leica) was used to isolate the mPFC subregions (mPFC-IL and mPFC-PL), and subregions of the NAc (NAc-core and NAc-shell). Brains were micro-punctured using the stereotaxic coordinates following the Rat Brain Atlas. The isolated brain regions were stored at −80° C. for subsequent protein detection using Western Blot assay.
Immunoblot assays were performed to determine the expression of GLT-1, xCT and β-tubulin in mPFC-IL, mPFC-PL, NAc-core, and NAc-shell of all groups as described previously. Briefly, brain samples were homogenized in lysis buffer supplemented with protease inhibitor and total protein was quantified using protein assay (Bio-Rad, Hercules, CA, USA). Equal amount of the samples was loaded on polyacrylamide gel (10-20%).
Subsequently, proteins were transferred on a PVDF membrane and blocked with 5% milk in Tris-buffered saline Tween-20 (1×TBST) for 30 minutes at room temperature. Membranes were then incubated overnight at 4° C. with one of the following antibodies: rabbit anti-GLT-1 (1:1000, Abcam, AB41621), and/or rabbit anti-xCT (1:1000, Abcam, AB175186). Mouse anti-β-tubulin (1:1000; Cell Signaling D71G5) was used as a loading control antibody. On the following day, membranes were washed five times with 1×TBST followed by incubation with appropriate secondary antibody (1:4000) for 60 minutes at room temperature. Chemiluminescent reagents (Super Signal West Pico, Pierce Inc.) were used to detect proteins using a ChemiDoc imaging system (BioRad, USA).
GLT-1 and xCT expression were normalized against β-tubulin, a control loading protein. Imaging System and ImageJ software version 1.53a were used to quantify and analyze the expression of GLT-1 and xCT in the subregions of the mPFC and NAc. Data from water-control group were represented as 100% and all other values were expressed relative to this control to evaluate the changes in protein expression.
The ratios for treated animals in the ethanol/saline and ethanol/MC-100093 groups were normalized to the mean ratios for the control group (water/saline group). The control ratio was set at 100, and the results from each of the treated groups were expressed as a percentage relative to the water/saline group value of 100%. We normalized the ethanol/saline and ethanol/MC-100093 groups data to water/saline group to reduce any differences of contrast with Western blots for each set of groups (control/water/saline, ethanol/saline, and ethanol/MC-100093 groups).
All statistical analyses were conducted using GraphPad Prism (10). Two-way (mixed) ANOVA followed by Bonferroni multiple comparison post-hoc test was performed to analyze daily ethanol intake, average daily water intake and body weight. One-way ANOVA followed by Newman-Keuls post hoc tests were used to analyze Western blot data. All statistical analyses data were reported as a p<0.05 of significance.

[1] = Ethanol-intake model (section C); type: in vivo, Male P rats
Procedure: Male P rats were obtained from Indiana University School of Medicine (Indianapolis, IN, USA). P rats were ˜90 days old at the beginning of the drinking paradigms. P rats were used in this study as they fit the necessary criteria of ethanol preference. P rats may consume freely ethanol (15% and 30%, v/v) and achieve a pharmacologically blood alcohol concentration (BACs) of 50-200 mg % as shown in previous studies from Indiana University. Rats were housed in a room kept at 21° C. on a 12/12-hour light/dark cycle and had free access to water and food. All experimental procedures were approved by the Institutional Animal Care and Use Committee (IACUC) at University of Toledo under protocol #400160, in accordance with all guidelines of IACUC of the National Institute of Health, and the Guide for the Care and Use of Laboratory Animals.
Rats were assigned to three groups prior to the start of the experiments based on their weights, and the average weights of each group were similar between all groups. Male P rats were divided into three groups: a) Control/water group was exposed to water for five weeks and received saline vehicle injection (i.p.) every 24 hours during Week 6 for a total of five days; b) Ethanol/saline group was exposed to free choice of ethanol (15% and 30%, v/v) as well as water for 5 weeks and received saline vehicle (i.p.) every 24 hours during Week 6 for a total of five days; c) Ethanol/MC-100093 group was exposed to free choice of ethanol (15% and 30%, v/v) as well as water for 5 weeks and received MC-100093 (100 mg/kg, i.p.) every 24 hours during Week 6 for 5 days (FIG. 16). […]
The baseline was calculated by taking the average of the prior 5 weeks of water and ethanol consumption as rat weight. […] As weights of the bottles were recorded, the measurements were converted using g of ethanol intake/kg of body weight/day formula to determine ethanol consumption in g/kg of body weight. […]
Statistical analyses were performed using GraphPad Prism Version 10. […] Statistical significance was determined by a p-value of or less than 0.05.

[2] = female P rats, vs ethanol-saline and water-saline

C[C@@H](O)[C@H]1C(=O)N[C@@H]1[C@@H](C)C(=O)N1CCN(C)CC1 [MC-100093]
xCT expression in the NAc-core (xCT; [2]): significant upregulation of xCT expression
xCT expression in the NAc-shell (xCT; [2]): significant upregulation in the expression of xCT
xCT expression in the mPFC-IL (xCT; [2]): significant upregulation in the expression of xCT
xCT expression in the mPFC-PL (xCT; [2]): significant upregulation of the expression of xCT
xCT expression in mPFC and NAc subregions (summary) (xCT; female and male P rats, vs ethanol-saline groups, 100 mg/kg): upregulated GLT-1 and xCT expression in mPFC and NAc subregions; also recorded: upregulated xCT expression in both the NAc and the mPFC subregions in male and female P rats; also recorded: increasing GLT-1 and xCT expression in the mPFC and NAc subregions
xCT expression in the NAc-core (xCT; male P rats): significantly increased the expression of xCT
xCT expression in the NAc-shell (xCT; male P rats): increased the expression of xCT
xCT expression in the mPFC-IL (xCT; male P rats): significantly increased the expression of xCT
xCT expression in the mPFC-PL (xCT; male P rats): significantly increased the expression of xCT
Water intake ([1]; male P rats exposed to ethanol, 100 mg/kg i.p., day 5, 100 mg/kg): significant increase in water intake; also recorded: drank significantly more water than the ethanol/saline group
Body weight ([1]; male P rats, 100 mg/kg i.p. 5 days): no significant effect of Treatment by Day interaction on body weight
Ethanol intake ([1]; male P rats, 100 mg/kg i.p. days 1-5 of Week 6, vs saline vehicle, 100 mg/kg): reduced ethanol intake after 5-week drinking regimen; also recorded: significant decrease in ethanol intake; also recorded: reduced ethanol intake in P rats staring 24 hours after the first injection of the drug through the five days regimen; also recorded: robust effect in ethanol intake
